Assay results published in patent publication US20220313626A1, “SMALL MOLECULE INHIBITORS FOR TREATING CANCER IN A SUBJECT HAVING TUMORS WITH HIGH INTERSTITIAL PRESSURE” (GUANGZHOU MAXINOVEL PHARMACEUTICALS CO., LTD., priority 2019, published 2022).

System: MC-38-hPD-L1 tumor cells
Experiment: Anti-tumor efficacy in MC-38-hPD-L1 models
Type: in vivo
Settings: for TGI / Tumor Volume: MC-38-hPD-L1, C57BL/6-hPD-1 mice, BID, 19 days
Experimental: Materials required for the experiment: Antibody: PD-L1 antibody Durvalumab, Product specifications: 120 mg/2.4 mL(50 mg/mL), Lot No.: 041E17C, Manufacture: AstraZeneca, purchased from Hongkong Mingchuang Medical Limited, storage at 2-8° C. Experimental animal: 120 C57BL/6-hPD-1 mice, female, 6˜8 weeks old, 18˜21 g, purchased from Jiangsu Gem Pharmatech Co. Ltd. Formulation material: castor oil (Cremophor RH40), CAS No.: 61788-85-0, Lot No.: 29761847G0, purchased from Shanghai Xietai Chemical Co. Ltd.; β-cyclodextrin (SBE-β-CD), CAS No.: 128446-35-5, Lot No.: R1804474, purchased from Shanghai Shaoyuan Chemical Co. Ltd.; DMEM culture medium, CAS No.: 11995-065, Lot No.: 2025378, purchased from Gibco Co. Ltd.; PBS, Art. No.: SH30256.01, Lot No.: AB10141338, purchased from HyClone Co. Ltd.; Fetal bovine serum: CAS No.: 10099-141, Lot No.: 1966174C, purchased from Gibco Co. Ltd.; hygromycinB: CAS No.: 10687010, Lot No.: HY069-L12 purchased from Invitrogen.
Cell culture: The MC-38 tumor cells (NCI) were maintained in vitro as a monolayer culture in DMEM medium supplemented with 10% heat inactivated fetal bovine serum, 100 μg/mL hygromycinB at 37° C. in an atmosphere of 5% CO2 in air. The tumor cells were routinely subcultured three times weekly by trypsin-EDTA treatment. The cells growing to a confluency around 70%-80% were harvested and counted for tumor inoculation.
Tumor cell inoculation and group administration: The 100 uL cell suspension containing 1×10^6 MC-38-hPD-L1 tumor cells (cells suspended in base DMEM medium) was inoculated into right dorsal subcutaneous area in mice. 6 days after inoculation, 60 tumor-bearing mice with transplanted tumors ranging from 31.49 mm^3 to 110.26 mm^3 were selected, stratified randomization was used to group and start the administration on the day of grouping.
Preparation of test substances: Preparation of formulation: 800 mL of sterile water was added into the volumetric flask with magnetic stirring to have a vortex. 100 g of castor oil (Cremophor RH40) was added with a spoon slowly into the vortex and the solution was kept stirring. 200 g of β-cyclodextrin (SBE-β-CD) was added while the solution was kept stirring until the solution was clear, and the total volume was set to 1000 mL, which contained 10% (w/v) Cremophor RH40+20% (w/v) an aqueous solution of SBE-β-CD.
Preparation of Compound Suspension: 150.92 mg compound was weighed and 12.5 mL 10% (w/v) Cremophor RH40+20% (w/v) SBE-β-CD aqueous solution were added. The suspension solution with a concentration of 12.0 mg/mL was obtained by vortex for 2 minutes and ultrasound for 30 minutes. 5.0 mL of the compound suspension solution with concentration of 12.0 mg/mL was pipetted and 5.0 mL aqueous formulation solution was added. The suspension solution with a concentration of 6.0 mg/mL was obtained by vortex for 1 minute and sonicated by ultrasound for 5 minutes. 2.0 mL of the compound suspension solution with concentration of 6.0 mg/mL was pipetted and […] was added. The suspension solution with a concentration of 3.0 mg/mL was obtained by vortex for 1 minute and sonicated by ultrasound for 5 minutes. Compound suspension solution was prepared once a day.
Preparation of hPD-L1 antibody: 0.12 mL PD-L1 antibody Durvalumab (50 mg/mL) original solution was pipetted and divided into […] in 5 mL sterile centrifugal tube, which were packed with each containing 6.0 mg. They were stored in refrigerator at 4° C. Before administration, a raw solution containing 0.12 mL and 50 mg/mL was taken, and 2.88 mL 0.9% sodium chloride solution was added to make the solution thoroughly mixed. 3 mL Duvalumab solution with the concentration 2 mg/mL was obtained.
Procedure: The mice in the vehicle group were weighed and recorded in the electronic balance according to their numbers. […]

Compound: Cc1c(/C=C/c2cc(CN[C@@](C)(CO)C(=O)O)ccc2C(F)(F)F)cccc1-c1ccccc1 [Compound]
- tolerability (adverse reactions) (C57BL/6-hPD-1 mice, PO, BID up to 120 mg/kg): well tolerated
- TGI (30 mg/kg, PO): 24.95%
- Tumor Volume (30 mg/kg, PO): 459.82 ± 58.24 mm^3
- TGI (60 mg/kg, PO): 29.06%
- Tumor Volume (60 mg/kg, PO): 439.04 ± 51.23 mm^3
- TGI (120 mg/kg, PO): 51.21%
- Tumor Volume (120 mg/kg, PO): 325.23 ± 38.59 mm^3
- growth of subcutaneous MC-38-hPD-L1 tumors in mice (MC-38-hPD-L1 model, C57BL/6-hPD-1 mice): significantly inhibit the growth
